# From patent US7371766B2, “Curcumin analogs with anti-tumor and anti-angiogenic properties” (Emory University, priority 1999, dated 2008)
# Where two headings read alike, the source gives them in different places.
# Tests used:
# HCC-2998 [1] = experiment: cells; conditions: Homo sapiens, HCC 2998, 48 h; for GI50: read-out: Median Growth Inhibitory Concentration (GI50); for CC50: read-out: Median Lethal Concentration (LC50)
# SNB-75 = experiment: cells; conditions: Homo sapiens, SNB-75, 48 h; for GI50: read-out: Median Growth Inhibitory Concentration (GI50); for CC50: read-out: Median Lethal Concentration (LC50)
# M14 = experiment: cells; conditions: Homo sapiens, M14, 48 h; for GI50: read-out: Median Growth Inhibitory Concentration (GI50); for CC50: read-out: Median Lethal Concentration (LC50)
# EKVX = conditions: for GI50: read-out: Median Growth Inhibitory Concentration (GI50), Non-Small Cell Lung Cancer, 48 hours
# SK-MEL-2 = conditions: 48 hours; for GI50: read-out: Median Growth Inhibitory Concentration (GI50), SK-MEL-2, Melanoma
# MDA-MB-231 = conditions: 48 hours; for GI50: read-out: Median Growth Inhibitory Concentration (GI50), MDA-MB-231, Breast Cancer
# UO-31 = conditions: 48 hours; for GI50: read-out: Median Growth Inhibitory Concentration (GI50), UO-31, Renal Cancer
# HOP-92 = conditions: 48 hours; for GI50: read-out: Median Growth Inhibitory Concentration (GI50), HOP-92, Non-Small Cell Lung Cancer
# OVCAR-3 = conditions: 48 hours; for GI50: read-out: Median Growth Inhibitory Concentration (GI50), OVCAR-3, Ovarian Cancer
# T-47D = conditions: for GI50: read-out: Median Growth Inhibitory Concentration (GI50), Breast Cancer, 48 hours
# NCI-H522 = conditions: 48 hours; for GI50: read-out: Median Growth Inhibitory Concentration (GI50), NCI-H522, Non-Small Cell Lung Cancer
# A498 = conditions: 48 hours; for GI50: read-out: Median Growth Inhibitory Concentration (GI50), A498, Renal Cancer
# HCC-2998 [2] = conditions: 48 hours; for GI50: read-out: Median Growth Inhibitory Concentration (GI50), HCC-2998, Colon Cancer
# SF-268 = conditions: 48 hours; for GI50: read-out: Median Growth Inhibitory Concentration (GI50), SF-268, CNS Cancer
# UACC-62 = conditions: 48 hours; for GI50: read-out: Median Growth Inhibitory Concentration (GI50), UACC-62, Melanoma
# HOP-62 = conditions: 48 hours; for GI50: read-out: Median Growth Inhibitory Concentration (GI50), HOP-62, Non-Small Cell Lung Cancer
# UACC-257 = conditions: 48 hours; for GI50: read-out: Median Growth Inhibitory Concentration (GI50), UACC-257, Melanoma
# NCI/ADR-RES = conditions: for GI50: read-out: Median Growth Inhibitory Concentration (GI50), Breast Cancer, 48 hours
# MDA-MB-435 = conditions: 48 hours; for GI50: read-out: Median Growth Inhibitory Concentration (GI50), MDA-MB-435, Breast Cancer
# PC-3 = conditions: 48 hours; for GI50: read-out: Median Growth Inhibitory Concentration (GI50), PC-3, Prostate Cancer
# SN12C = conditions: for GI50: read-out: Median Growth Inhibitory Concentration (GI50), Renal Cancer, 48 hours
# K-562 = conditions: 48 hours; for GI50: read-out: Median Growth Inhibitory Concentration (GI50), K-562, Leukemia
# SNB-19 = conditions: 48 hours; for GI50: read-out: Median Growth Inhibitory Concentration (GI50), SNB-19, CNS Cancer
# U251 = conditions: 48 hours; for GI50: read-out: Median Growth Inhibitory Concentration (GI50), U251, CNS Cancer
# SK-MEL-28 = conditions: 48 hours; for GI50: read-out: Median Growth Inhibitory Concentration (GI50), SK-MEL-28, Melanoma
# MDA-N = conditions: for GI50: read-out: Median Growth Inhibitory Concentration (GI50), Breast Cancer, 48 hours
# SF-295 = conditions: 48 hours; for GI50: read-out: Median Growth Inhibitory Concentration (GI50), SF-295, CNS Cancer
# CAKI-1 = conditions: 48 hours; for GI50: read-out: Median Growth Inhibitory Concentration (GI50), CAKI-1, Renal Cancer
# A549 = conditions: 48 hours; for GI50: read-out: Median Growth Inhibitory Concentration (GI50), A549, Non-Small Cell Lung Cancer
# MCF-7 = conditions: 48 hours; for GI50: read-out: Median Growth Inhibitory Concentration (GI50), MCF-7, Breast Cancer
# SR = conditions: for GI50: read-out: Median Growth Inhibitory Concentration (GI50), Leukemia, 48 hours
# OVCAR-4 = conditions: 48 hours; for GI50: read-out: Median Growth Inhibitory Concentration (GI50), OVCAR-4, Ovarian Cancer
# [3] = read-out: Median Lethal Concentration (LC50), Breast Cancer, 48 hours, SRB assay
compound,measurement,setting,value
"OC(CCc1ccc(F)cc1F)CCc1ccc(F)cc1F [EF19, 1,5-Bis(2,4-difluorophenyl)-pentan-3-ol]",GI50,HCC-2998 [1],17700 nM
same,CC50,HCC-2998 [1],56100 nM
same,GI50,SNB-75,19000 nM
same,CC50,SNB-75,57500 nM
same,GI50,M14,18300 nM
same,CC50,M14,68700 nM
"O=C(C=Cc1ccc(F)cc1F)C=Cc1ccc(F)cc1F [EF9, 1,5-Bis(2,4-difluorophenyl)penta-1,4-dien-3-one]",GI50,HCC-2998 [1],3300 nM
same,CC50,HCC-2998 [1],32200 nM
same,GI50,SNB-75,11200 nM
same,CC50,SNB-75,48800 nM
same,GI50,M14,4100 nM
same,CC50,M14,48600 nM
CC1(/C=C/c2ccccc2O)C=Cc2ccccc2O1 (stereo not drawn) [EF7],GI50,HCC-2998 [1],18400 nM
same,CC50,HCC-2998 [1],56800 nM
same,GI50,SNB-75,11800 nM
same,CC50,SNB-75,49000 nM
same,GI50,M14,15700 nM
same,CC50,M14,54000 nM
"CC(=O)O.O=C1C(=Cc2ccccc2F)CNCC1=Cc1ccccc1F [EF24, 3,5-Bis-(2-fluorobenzylidene)-piperidin-4-one-acetate]",GI50,HCC-2998 [1],1100 nM
same,CC50,HCC-2998 [1],5000 nM
same,GI50,SNB-75,2000 nM
same,CC50,SNB-75,8800 nM
same,GI50,M14,1200 nM
same,CC50,M14,27700 nM
"O=C1C(=Cc2ccccc2O)COCC1=Cc1ccccc1O [EF25, 3,5-Bis(2-hyrdoxybenzylidene)tetrahydro4-H-pyran4-one]",GI50,EKVX,1400 nM
same,CC50,"EKVX; read-out: Median Lethal Concentration (LC50), Non-Small Cell Lung Cancer, 48 hours, SRB assay",24200 nM
same,GI50,SK-MEL-2,2000 nM
same,CC50,"SK-MEL-2; read-out: Median Lethal Concentration (LC50), Melanoma, SK-MEL-2, SRB assay",12600 nM
same,GI50,MDA-MB-231,1900 nM
same,CC50,"MDA-MB-231; read-out: Median Lethal Concentration (LC50), Breast Cancer, MDA-MB-231, SRB assay",17200 nM
same,GI50,UO-31,1200 nM
same,CC50,"UO-31; read-out: Median Lethal Concentration (LC50), Renal Cancer, UO-31, SRB assay",68100 nM
same,GI50,HOP-92,2400 nM
same,CC50,"HOP-92; read-out: Median Lethal Concentration (LC50), Non-Small Cell Lung Cancer, HOP-92, SRB assay",35400 nM
same,GI50,OVCAR-3,900 nM
same,CC50,"OVCAR-3; read-out: Median Lethal Concentration (LC50), Ovarian Cancer, OVCAR-3, SRB assay",23500 nM
same,GI50,T-47D,1300 nM
same,CC50,T-47D; [3],92900 nM
same,GI50,NCI-H522,900 nM
same,CC50,"NCI-H522; read-out: Median Lethal Concentration (LC50), Non-Small Cell Lung Cancer, NCI-H522, SRB assay",14100 nM
same,GI50,A498,1300 nM
same,CC50,"A498; read-out: Median Lethal Concentration (LC50), Renal Cancer, A498, SRB assay",6000 nM
same,GI50,HCC-2998 [2],1500 nM
same,CC50,"HCC-2998 [2]; read-out: Median Lethal Concentration (LC50), Colon Cancer, HCT-2998, SRB assay",5300 nM
same,GI50,SF-268,1400 nM
same,CC50,"SF-268; read-out: Median Lethal Concentration (LC50), CNS Cancer, SF-268, SRB assay",43300 nM
same,GI50,UACC-62,1700 nM
same,CC50,"UACC-62; read-out: Median Lethal Concentration (LC50), Melanoma, UACC-62, SRB assay",14400 nM
same,GI50,HOP-62,1500 nM
same,CC50,"HOP-62; read-out: Median Lethal Concentration (LC50), Non-Small Cell Lung Cancer, HOP-62, SRB assay",37200 nM
same,GI50,UACC-257,1600 nM
same,CC50,"UACC-257; read-out: Median Lethal Concentration (LC50), Melanoma, UACC-257, SRB assay",8200 nM
same,GI50,NCI/ADR-RES,1600 nM
same,CC50,NCI/ADR-RES; [3],71000 nM
same,GI50,MDA-MB-435,1000 nM
same,CC50,"MDA-MB-435; read-out: Median Lethal Concentration (LC50), Breast Cancer, MDA-MB-435, SRB assay",16300 nM
same,GI50,PC-3,500 nM
same,CC50,"PC-3; read-out: Median Lethal Concentration (LC50), Prostate Cancer, PC-3, SRB assay",24800 nM
same,GI50,SN12C,1400 nM
same,CC50,"SN12C; read-out: Median Lethal Concentration (LC50), Renal Cancer, 48 hours, SRB assay",12000 nM
same,GI50,K-562,600 nM
same,CC50,"K-562; read-out: Median Lethal Concentration (LC50), Leukemia, K-562, SRB assay",91800 nM
same,GI50,SNB-19,2200 nM
same,CC50,"SNB-19; read-out: Median Lethal Concentration (LC50), CNS Cancer, SNB-19, SRB assay",37300 nM
same,GI50,U251,700 nM
same,CC50,"U251; read-out: Median Lethal Concentration (LC50), CNS Cancer, U251, SRB assay",5800 nM
same,GI50,SK-MEL-28,2400 nM
same,CC50,"SK-MEL-28; read-out: Median Lethal Concentration (LC50), Melanoma, SK-MEL-28, SRB assay",6600 nM
same,GI50,MDA-N,1000 nM
same,CC50,MDA-N; [3],20000 nM
same,GI50,SF-295,1700 nM
same,CC50,"SF-295; read-out: Median Lethal Concentration (LC50), CNS Cancer, SF-295, SRB assay",35000 nM
same,GI50,CAKI-1,1800 nM
same,CC50,"CAKI-1; read-out: Median Lethal Concentration (LC50), Renal Cancer, CAKI-1, SRB assay",53700 nM
same,GI50,A549,2500 nM
same,CC50,"A549; read-out: Median Lethal Concentration (LC50), Non-Small Cell Lung Cancer, A549, SRB assay",71800 nM
same,GI50,MCF-7,300 nM
same,CC50,"MCF-7; read-out: Median Lethal Concentration (LC50), Breast Cancer, MCF-7, SRB assay",44700 nM
same,GI50,SR,200 nM
same,CC50,"SR; read-out: Median Lethal Concentration (LC50), Leukemia, 48 hours, SRB assay",76300 nM
same,GI50,OVCAR-4,2000 nM
same,CC50,"OVCAR-4; read-out: Median Lethal Concentration (LC50), Ovarian Cancer, OVCAR-4, SRB assay",23300 nM
"N.N.[Cl][Pt][Cl] [Cisplatin, reference compound]",GI50,EKVX,1600 nM
same,GI50,SK-MEL-2,1300 nM
same,GI50,MDA-MB-231,3200 nM
same,GI50,UO-31,800 nM
same,GI50,HOP-92,600 nM
same,GI50,OVCAR-3,1000 nM
same,GI50,T-47D,2000 nM
same,GI50,NCI-H522,800 nM
same,GI50,A498,2000 nM
same,GI50,HCC-2998 [2],100 nM
same,GI50,SF-268,200 nM
same,GI50,UACC-62,300 nM
same,GI50,HOP-62,300 nM
same,GI50,UACC-257,1000 nM
same,GI50,NCI/ADR-RES,800 nM
same,GI50,MDA-MB-435,1600 nM
same,GI50,PC-3,1600 nM
same,GI50,SN12C,1000 nM
same,GI50,K-562,1000 nM
same,GI50,SNB-19,1000 nM
same,GI50,U251,400 nM
same,GI50,SK-MEL-28,800 nM
same,GI50,MDA-N,800 nM
same,GI50,SF-295,300 nM
same,GI50,CAKI-1,300 nM
same,GI50,A549,800 nM
same,GI50,MCF-7,400 nM
same,GI50,SR,100 nM
same,GI50,OVCAR-4,300 nM
COc1cc(/C=C/C(=O)CC(=O)/C=C/c2ccc(O)c(OC)c2)ccc1O [Curcumin],GI50,HCC-2998 [1],3200 nM
same,CC50,HCC-2998 [1],31600 nM
same,GI50,SNB-75,6300 nM
same,CC50,SNB-75,50100 nM
same,GI50,M14,4000 nM
same,CC50,M14,50100 nM
"O=C1C(=Cc2ccccc2O)CCCC1=Cc1ccccc1O [EF4, 2,6Bis(2-hydroxybenzylidene)cyclohexanone]",GI50,HCC-2998 [1],1700 nM
same,CC50,HCC-2998 [1],5900 nM
same,GI50,SNB-75,2000 nM
same,CC50,SNB-75,21500 nM
same,GI50,M14,1900 nM
same,CC50,M14,13200 nM
